The target in one assay is T1, rat P2X3 receptor (Rattus norvegicus, UniProt P49654).
T1 construct: expressed in transfected cells; host or cells: CHO-K1
T1 sequence (P49654 1-397): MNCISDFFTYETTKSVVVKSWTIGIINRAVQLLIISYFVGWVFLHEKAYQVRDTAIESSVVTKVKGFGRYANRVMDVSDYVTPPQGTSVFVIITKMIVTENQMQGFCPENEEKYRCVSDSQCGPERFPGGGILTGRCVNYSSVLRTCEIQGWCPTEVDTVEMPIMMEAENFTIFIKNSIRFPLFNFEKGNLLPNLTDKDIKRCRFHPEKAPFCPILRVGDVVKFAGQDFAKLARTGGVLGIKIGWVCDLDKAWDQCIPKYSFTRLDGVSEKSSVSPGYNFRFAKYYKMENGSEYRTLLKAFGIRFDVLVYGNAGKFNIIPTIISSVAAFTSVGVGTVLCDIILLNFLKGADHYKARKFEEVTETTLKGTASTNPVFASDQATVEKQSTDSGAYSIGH
Description: P2X3/P2X2/3 FLIPR (Fluorometric Imaging Plate Reader) Assay, P2X3. The settings on record: CHO-K1 cells transfected with rat P2X3; agonist α,β-meATP 1 μM; Table 1; read-out: P2X3 pKi (converted). In kind it is cell-based. As to the method: (§1) P2X3/P2X2/3 FLIPR (Fluorometric Imaging Plate Reader) Assay
(§2) CHO-K1 cells were transfected with cloned rat P2X3 or human P2X2/3 receptor subunits and passaged in flasks. 18-24 hours before the FLIPR experiment, cells were released from their flasks, centrifuged, and resuspended in nutrient medium at 2.5×10^5 cells/ml. The cells were aliquoted into black-walled 96-well plates at a density of 50,000 cells/well and incubated overnight in 5% CO2 at 37° C. On the day of the experiment, cells were washed in FLIPR buffer (calcium- and magnesium-free Hank's balanced salt solution, 10 mM HEPES, 2 mM CaCl2, 2.5 mM probenecid; FB). Each well received 100 μl FB and 100 μl of the fluorescent dye Fluo-3 AM [2 μM final conc.]. After a 1 hour dye loading incubation at 37° C., the cells were washed 4 times with FB, and a final 75 μl/well FB was left in each well.
(§3) Test compounds (dissolved in DMSO at 10 mM and serially diluted with FB) or vehicle were added to each well (25 μl of a 4× solution) and allowed to equilibrate for 20 minutes at room temperature. The plates were then placed in the FLIPR and a baseline fluorescence measurement (excitation at 488 nm and emission at 510-570 nm) was obtained for 10 seconds before a 100 μl/well agonist or vehicle addition. The agonist was a 2× solution of α,β-meATP producing a final concentration of 1 μM (P2X3) or 5 μM (P2X2/3). Fluorescence was measured for an additional 2 minutes at 1 second intervals after agonist addition. A final addition of ionomycin (5 μM, final concentration) was made to each well of the FLIPR test plate to establish cell viability and maximum fluorescence of dye-bound cytosolic calcium. Peak fluorescence in response to the addition of α,β-meATP (in the absence and presence of test compounds) was measured and inhibition curves generated using nonlinear regression. PPADS, a standard P2X antagonist, was used as a positive control.

The target of the next assay is T2, human P2X2/3 receptor (Homo sapiens, UniProt P56373+Q9UBL9).
T2 construct: expressed in transfected cells; host or cells: CHO-K1
T2 sequence (Q9UBL9 1-471): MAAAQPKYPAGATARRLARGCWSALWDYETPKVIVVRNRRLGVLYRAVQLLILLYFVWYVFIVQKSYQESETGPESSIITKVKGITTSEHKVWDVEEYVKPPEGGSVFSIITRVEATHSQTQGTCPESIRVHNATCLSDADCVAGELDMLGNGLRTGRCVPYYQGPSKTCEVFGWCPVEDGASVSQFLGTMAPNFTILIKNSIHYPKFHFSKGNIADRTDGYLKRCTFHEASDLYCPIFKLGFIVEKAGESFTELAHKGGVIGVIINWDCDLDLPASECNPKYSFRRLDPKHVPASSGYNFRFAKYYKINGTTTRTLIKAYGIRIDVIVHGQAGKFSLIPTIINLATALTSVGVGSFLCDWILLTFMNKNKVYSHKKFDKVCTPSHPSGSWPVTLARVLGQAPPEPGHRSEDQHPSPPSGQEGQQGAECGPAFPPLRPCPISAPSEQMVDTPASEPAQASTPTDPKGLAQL
T2 sequence (P56373 1-397): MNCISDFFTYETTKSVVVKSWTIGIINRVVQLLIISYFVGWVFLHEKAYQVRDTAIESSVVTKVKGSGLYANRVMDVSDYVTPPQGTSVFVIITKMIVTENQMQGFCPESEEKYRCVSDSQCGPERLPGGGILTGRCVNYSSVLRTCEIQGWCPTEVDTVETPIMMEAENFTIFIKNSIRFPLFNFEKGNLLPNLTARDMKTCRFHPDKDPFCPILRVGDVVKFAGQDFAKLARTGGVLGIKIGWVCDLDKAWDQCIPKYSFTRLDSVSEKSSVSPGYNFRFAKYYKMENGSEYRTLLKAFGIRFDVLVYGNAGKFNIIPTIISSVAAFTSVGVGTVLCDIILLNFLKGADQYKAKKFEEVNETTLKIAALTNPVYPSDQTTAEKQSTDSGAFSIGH
Description: P2X3/P2X2/3 FLIPR (Fluorometric Imaging Plate Reader) Assay, P2X2/3. To be noted: CHO-K1 cells transfected with human P2X2/3; agonist α,β-meATP 5 μM; Table 1; read-out: P2X2/3 pKi (converted). In kind it is cell-based. The method, then:
as §1, §2, §3

Regarding `Cc1ccc(-c2cc(C(=O)NC(C)c3cnccn3)cc(-n3ncnc3C(F)(F)F)c2)cc1` (centres unmarked) [Compound 66, 4′-Methyl-5-(5-trifluoromethyl-[1,2,4]triazol-1-yl)-biphenyl-3-carboxylic acid (1-pyrazin-2-yl-ethyl)-amide], the values for the Ki at rat P2X3 receptor and at human P2X2/3 receptor were 3.72 nM and 40.7 nM, respectively.
As for `Cc1ccc(-c2cc(C(=O)NC(C)c3cnccn3)cc(-n3nncc3C(C)C)c2)c(F)c1` (centres unmarked) [Compound 25, 2′-Fluoro-5-(5-isopropyl-[1,2,3]triazol-1-yl)-4′-methyl-biphenyl-3-carboxylic acid (1-pyrazin-2-yl-ethyl)-amide], the results for the Ki at rat P2X3 receptor and at human P2X2/3 receptor were 12 nM and 72.4 nM, respectively.
Take `Cc1ccc(-c2cc(C(=O)N[C@@H](C)CO)cc(-n3ncnc3C(C)N(C)C)c2)cc1` (stereo partly drawn) [Compound 105, 5-[5-(1-Dimethylamino-ethyl)-[1,2,4]triazol-1-yl]-4′-methyl-biphenyl-3-carboxylic acid ((S)-2-hydroxy-1-methyl-ethyl)-amide]: the Ki on rat P2X3 receptor was 5.25 nM; at human P2X2/3 receptor, 646 nM.
Take `Cc1ccc(-c2cc(C(=O)N[C@@H](C)CO)cc(-n3ncnc3CC(C)C)c2)nc1` [Compound 131, N-((S)-2-Hydroxy-1-methyl-ethyl)-3-(5-isobutyl-[1,2,4]triazol-1-yl)-5-(5-methyl-pyridin-2-yl)-benzamide]: the Ki was 3.72 nM at rat P2X3 receptor and 158 nM on human P2X2/3 receptor.
Turning to `COC[C@@H](C)NC(=O)c1cc(-c2ccc(C)cc2)cc(-n2nncc2C(C)C)c1` [Compound 10, 5-(5-Isopropyl-[1,2,3]triazol-1-yl)-4′-methyl-biphenyl-3-carboxylic acid ((R)-2-methoxy-1-methyl-ethyl)-amide], the Ki is 7.41 nM at rat P2X3 receptor and 324 nM on human P2X2/3 receptor.
`Cc1ccc(-c2cc(C(=O)NC3CC3)cc(-n3ncnc3CC(C)C)c2)nc1` [Compound 130, N-Cyclopropyl-3-(5-isobutyl-[1,2,4]triazol-1-yl)-5-(5-methyl-pyridin-2-yl)-benzamide]: the Ki was 4.27 nM at rat P2X3 receptor and 182 nM on human P2X2/3 receptor.
The like results for `Cc1ccc(-c2cc(C(=O)NC(C)c3cnccn3)cc(-n3ncnc3C(C)O)c2)cc1` (centres unmarked) [Compound 49, 5-[5-(1-Hydroxy-ethyl)-[1,2,4]triazol-1-yl]-4′-methyl-biphenyl-3-carboxylic acid (1-pyrazin-2-yl-ethyl)-amide] were, in that order, 5.13 nM and 282 nM.
For `Cc1ccc(-c2cc(C(=O)NC(C)CO)cc(-n3nc(C)nc3C(C)C)c2)cc1` (centres unmarked) [Compound 28, 5-(5-Isopropyl-3-methyl-[1,2,4]triazol-1-yl)-4′-methyl-biphenyl-3-carboxylic acid (2-hydroxy-1-methyl-ethyl)-amide], the Ki on rat P2X3 receptor is 64.6 nM; at human P2X2/3 receptor, 10000 nM.
Turning to `CCOCCc1ncnn1-c1cc(C(=O)NCc2cnc(C)cn2)cc(-c2ccc(C)cn2)c1` [Compound 149, 3-[5-(2-Ethoxy-ethyl)-[1,2,4]triazol-1-yl]-N-(5-methyl-pyrazin-2-ylmethyl)-5-(5-methyl-pyridin-2-yl)-benzamide], the results for the Ki on rat P2X3 receptor and at human P2X2/3 receptor were 20 nM and 7240 nM, respectively.
Consider `Cc1ccc(-c2cc(-n3ncnc3C(F)(F)F)cc(C(=O)N[C@@H](C)CO)c2F)nc1` [Compound 167, 2-Fluoro-N-((S)-2-hydroxy-1-methyl-ethyl)-3-(5-methyl-pyridin-2-yl)-5-(5-trifluoromethyl-[1,2,4]triazol-1-yl)-benzamide], for which the Ki was 2.51 nM at rat P2X3 receptor and 12 nM at human P2X2/3 receptor.
For `Cc1ccc(-c2cc(C(=O)NC(C)CO)cc(-n3nncc3C(C)C)c2)cc1` (centres unmarked) [Compound 11, 5-(5-Isopropyl-[1,2,3]triazol-1-yl)-4′-methyl-biphenyl-3-carboxylic acid (2-hydroxy-1-methyl-ethyl)-amide], the Ki is 5.25 nM on rat P2X3 receptor and 257 nM at human P2X2/3 receptor.
In the case of `COCc1ncnn1-c1cc(C(=O)NC(C)c2cnccn2)cc(-c2ccc(C)cc2)c1` (centres unmarked) [Compound 46, 5-(5-Methoxymethyl-[1,2,4]triazol-1-yl)-4′-methyl-biphenyl-3-carboxylic acid (1-pyrazin-2-yl-ethyl)-amide], the figures for the Ki on rat P2X3 receptor and on human P2X2/3 receptor were 5.13 nM and 204 nM, respectively.
Consider `CCCc1ncnn1-c1cc(C(=O)NC2CC2)cc(-c2ccc(Cl)cn2)c1` [Compound 112, 3-(5-Chloro-pyridin-2-yl)-N-cyclopropyl-5-(5-propyl-[1,2,4]triazol-1-yl)-benzamide], for which the Ki at rat P2X3 receptor is 10.2 nM; at human P2X2/3 receptor it was 1860 nM.
Take `Cc1cnc(CNC(=O)c2cc(-c3ccc(Cl)cn3)cc(-n3ncnc3C(C)N(C)C)c2)cn1` (centres unmarked) [Compound 158, 3-(5-Chloro-pyridin-2-yl)-5-[5-(1-dimethylamino-ethyl)-[1,2,4]triazol-1-yl]-N-(5-methyl-pyrazin-2-ylmethyl)-benzamide]: the Ki was 37.2 nM at rat P2X3 receptor and 851 nM at human P2X2/3 receptor.
Regarding `COC[C@@H](C)NC(=O)c1cc(-c2ccc(C)cc2)cc(-n2nncc2C)c1` [Compound 6, 4′-Methyl-5-(5-methyl-[1,2,3]triazol-1-yl)-biphenyl-3-carboxylic acid ((R)-2-methoxy-1-methyl-ethyl)-amide], the Ki on rat P2X3 receptor was 269 nM; at human P2X2/3 receptor it was 2040 nM.
For the molecule `COc1ncnn1-c1cc(C(=O)NC(C)c2cnccn2)cc(-c2ccc(Cl)cc2)c1` (centres unmarked) [Compound 50, 4′-Chloro-5-(5-methoxy-[1,2,4]triazol-1-yl)-biphenyl-3-carboxylic acid (1-pyrazin-2-yl-ethyl)-amide], the Ki at rat P2X3 receptor is 26.9 nM; on human P2X2/3 receptor it was 537 nM.
Taken in the same sequence, the figures for `Cc1ccc(-c2cc(C(=O)NCc3cnc(C)cn3)cc(-n3ncnc3C(F)(F)F)c2F)nc1` [Compound 164, 4-Fluoro-N-(5-methyl-pyrazin-2-ylmethyl)-3-(5-methyl-pyridin-2-yl)-5-(5-trifluoromethyl-[1,2,4]triazol-1-yl)-benzamide] were 11.5 nM and 302 nM.
Regarding `CCn1cc(-c2cc(C(=O)N[C@H](C)COC)cc(-c3ccc(C)cc3)c2)nn1` [Compound 39, 5-(1-Ethyl-1H-[1,2,3]triazol-4-yl)-4′-methyl-biphenyl-3-carboxylic acid ((R)-2-methoxy-1-methyl-ethyl)-amide], the values for the Ki on rat P2X3 receptor and at human P2X2/3 receptor were 8510 nM and 10000 nM, respectively.
Consider `CCc1ncnn1-c1cc(C(=O)NCc2cnc(C)cn2)cc(-c2ccc(Cl)cn2)c1` [Compound 124, 3-(5-Chloro-pyridin-2-yl)-5-(5-ethyl-[1,2,4]triazol-1-yl)-N-(5-methyl-pyrazin-2-ylmethyl)-benzamide], for which the Ki is 13.5 nM at rat P2X3 receptor and 1150 nM on human P2X2/3 receptor.

The record behind these values is patent US8440708B2, “Triazole-substituted arylamides as P2X3 and P2X2/3 antagonists” (Roche Palo Alto LLC, priority 2007, dated 2013).
